Reference: the supplement of paper PMC10307832

Experiments:
Experiment in all cases: relative viability (nuclei count vs DMSO), 5 days (fraction); higher = more cells survive
[1] = compound: CO[C@@H]1[C@H](N(C)C(=O)c2ccccc2)C[C@H]2O[C@]1(C)n1c3ccccc3c3c4c(c5c6ccccc6n2c5c31)C(=O)NC4 [Midostaurin] + N=C(N)NC(=N)NCCc1ccccc1 [Phenformin] (partner 250 µM)
Outline: (§1)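 Lung cancer cell lines in 1536-well plates got either a single drug or a fixed anchor-drug dose together with five library-drug doses (not always all listed) in √10 steps, by pin tool, on the day after seeding. Nuclei were counted after 5 days, and relative viability is the treated-to-vehicle ratio of nuclei counts. Values are medians of duplicate plates.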

[2] = compound: CO[C@@H]1[C@H](N(C)C(=O)c2ccccc2)C[C@H]2O[C@]1(C)n1c3ccccc3c3c4c(c5c6ccccc6n2c5c31)C(=O)NC4 [Midostaurin] + CC1(C)CCC(c2ccc(Cl)cc2)=C(CN2CCN(c3ccc(C(=O)NS(=O)(=O)c4ccc(N[C@H](CCN5CCOCC5)CSc5ccccc5)c(S(=O)(=O)C(F)(F)F)c4)cc3)CC2)C1 [Navitoclax] (partner 0.5 µM)
Outline: as §1

[3] = compound: COc1cc(-c2nn([C@H]3CC[C@H](N4CCN(C(C)=O)CC4)CC3)c3ncnc(N)c23)ccc1NC(=O)c1cc2ccccc2n1C + N=C(N)NC(=N)NCCc1ccccc1 [Phenformin] (partner 250 µM)
Outline: as §1

[4] = compound: CO[C@@H]1[C@H](N(C)C(=O)c2ccccc2)C[C@H]2O[C@]1(C)n1c3ccccc3c3c4c(c5c6ccccc6n2c5c31)C(=O)NC4 [Midostaurin]
Outline: (§2)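 In 1536-well plates, lung cancer cell lines rested overnight at 37 °C before five library-drug doses (not always all listed), √10 apart, were pinned onto vehicle-anchored plates. Nuclei were counted with MetaXpress from 4× Hoechst images taken after 5 days without medium change. Viability compares treated-well with vehicle-well nuclei as a median over plates, and plates needed control CV below 25% plus at least one doubling to pass.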

[5] = compound: COc1cc(-c2nn([C@H]3CC[C@H](N4CCN(C(C)=O)CC4)CC3)c3ncnc(N)c23)ccc1NC(=O)c1cc2ccccc2n1C
Outline: as §2

Cell Line	relative viability ([1]; first compound 0.01 µM)	relative viability ([1]; first compound 0.03162 µM)	relative viability ([1]; first compound 0.1 µM)	relative viability ([1]; first compound 0.3162 µM)	relative viability ([2]; first compound 0.01 µM)	relative viability ([2]; first compound 0.03162 µM)	relative viability ([2]; first compound 0.1 µM)	relative viability ([2]; first compound 0.3162 µM)	relative viability ([3]; first compound 0.0128 µM)	relative viability ([3]; first compound 0.04048 µM)	relative viability ([3]; first compound 0.128 µM)	relative viability ([3]; first compound 1.28 µM)	relative viability ([4]; 0.01 µM)	relative viability ([4]; 0.03162 µM)	relative viability ([4]; 0.1 µM)	relative viability ([4]; 0.3162 µM)	relative viability ([5]; 0.0128 µM)	relative viability ([5]; 0.04048 µM)	relative viability ([5]; 0.128 µM)	relative viability ([5]; 1.28 µM)
LK-2	0.425	0.571	0.492	0.374	0.831	0.876	0.843	0.825	0.423	0.38	0.408	0.485	0.998	1.04	0.947	1	1	0.949	0.943	0.794
201T	0.447	0.423	0.468	0.47	1.19	1.2	1.17	1.25	0.448	0.446	0.401	0.353	0.984	0.918	1	1.03	1.02	1.03	0.927	0.716
HCC-44	0.157	0.251	0.167	0.201	0.949	0.982	0.831	0.96	0.367	0.187	0.305	0.22	1	0.965	0.996	0.985	1.06	1.13	0.954	1.17
NCI-H596	0.898	0.963	0.816	0.986	1.09	1.02	0.978	1.07	0.665	0.896	0.657	0.579	0.946	1.01	1.15	1.17	1.03	0.95	0.833	0.836
H3255	0.376	0.34	0.311	0.34	0.575	0.587	0.488	0.562	0.347	0.297	0.36	0.282	0.971	0.948	0.876	0.966	0.996	0.962	0.946	0.763
NCI-H647	0.533	0.603	0.473	0.433	1.16	0.997	0.953	0.738	0.526	0.528	0.428	0.4	0.919	0.88	0.962	0.884	1.09	0.961	0.88	0.623
NCI-H2023	0.448	0.432	0.4	0.285	1.07	0.898	0.92	0.903	0.404	0.426	0.355	0.323	1.07	0.893	0.922	0.59	1.02	1.13	0.923	0.906
NCI-H23	0.713	0.798	0.773	0.772	0.875	0.95	0.396	0.788	0.765	0.835	0.805	0.717	1.05	0.962	0.791	0.562	0.951	0.726	0.901	0.946
NCI-H1944	0.217	0.196	0.239	0.235	1.03	1.18	1.11	1.15	0.238	0.198	0.184	0.165	0.963	0.987	0.931	1.15	1.09	0.983	0.921	0.769
NCI-H1793	0.444	0.325	0.36	0.26	0.417	0.533	0.513	0.493	0.388	0.252	0.317	0.289	1.16	0.848	0.89	0.762	0.904	0.827	0.858	0.649
NCI-H520	0.572	0.471	0.756	0.634	1.05	1.17	1.02	0.865	0.45	0.521	0.566	0.425	0.914	0.96	1.07	0.863	0.79	0.959	0.836	0.778
A549	0.139	0.126	0.166	0.209	1.2	1.08	1.08	0.77	0.178	0.203	0.151	0.185	0.994	0.857	0.953	0.744	0.995	0.952	0.979	0.957
NCI-H460	0.492	0.507	0.561	0.534	1.08	0.994	1.05	1.07	0.551	0.553	0.501	0.482	1.04	1.01	0.997	1.01	0.977	0.983	0.907	0.989
EKVX	0.232	0.239	0.223	0.25	0.907	0.955	0.893	0.905	0.234	0.245	0.211	0.199	0.991	0.886	0.95	1	0.941	1.06	0.987	0.56
EPLC-272H	0.31	–	0.282	0.303	1.11	0.96	0.856	1.27	0.46	–	0.27	0.282	1.04	0.944	0.93	0.969	0.906	0.873	0.963	0.865
